Measured values taken from US9513294B2, “Megastokes amino-triazolyl-BODIPY compounds and applications to live neuron staining and human serum albumin FA1 drug site probing” (National University of Singapore, priority 2012, dated 2016).
One block for each compound: values may come before it.

Key:
[1] = Absorbance and fluorescence emission spectra (SpectraMax M2); type: physicochemical; details: for λmax Abs. (nm) / λmax Em. (nm): MKAC compound library; for λmax Abs. (nm) / λmax Absorp. (nm): absorbance maximum; for λmax Em. (nm) / λmax Emission (nm): fluorescence emission maximum; for λmax Absorp. (nm) / λmax Emission (nm): MKCA compound library
Outline: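 Absorbance and emission maxima measured on a SpectraMax M2 spectrophotometer, which also gave quantum yield data; analysis in GraphPrism.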

[2] = Quantum yield measurements versus Acridine Yellow in EtOH; type: physicochemical; details: for φ (quantum yield): excitation 460 nm; for φ (%): quantum yield
Outline: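 Fluorescence quantum yield is relative to Acridine Yellow in EtOH (Φ 0.47), with excitation at 460 nm. Integrated emission at 510–700 nm was corrected for absorbance at the excitation wavelength and for solvent refractive index.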

λmax Absorp. ([1]; BDC library, Table 2): 473 nm
λmax Emission ([1]; BDC library, Table 2): 582 nm
φ (quantum yield) ([2]; BDC library, Table 2): 0.24%
SMILES: Nc1ccc(C2=C3C=CC(N4CCCCC4)=[N+]3[B-](F)(F)n3c2ccc3-n2cc(C3CCCCC3)nn2)cc1 [BDC-6]

λmax Absorp. ([1]; BDCCA library, Table 4): 468 nm
λmax Emission ([1]; BDCCA library, Table 4): 590 nm
φ (quantum yield) ([2]; BDCCA library, Table 4): 0.7%
SMILES: O=C(CCl)Nc1ccc(C2=C3C=CC(N4CCCCC4)=[N+]3[B-](F)(F)n3c2ccc3-n2cc(C3(O)CCCC3)nn2)cc1 [BDCCA-67]

λmax Absorp. ([1]; BDCAC library, Table 3): 467 nm
λmax Emission ([1]; BDCAC library, Table 3): 575 nm
φ (quantum yield) ([2]; BDCAC library, Table 3): 1.3%
SMILES: CCCCCCCCCCc1cn(-c2ccc3n2[B-](F)(F)[N+]2=C(N4CCCCC4)C=CC2=C3c2ccc(NC(C)=O)cc2)nn1 [BDCAC-49]

λmax Abs. (nm) [1]: 461 nm
λmax Em. (nm) [1]: 574 nm
φ (%) ([2]; MKAC compound library): 1.11%
SMILES: CC(=O)Nc1ccc(C2=C3C=CC(N4CCCC4)=[N+]3[B-](F)(F)n3c2ccc3-n2cc(CO)nn2)cc1 [MKAC215-70]

λmax Absorp. (nm) [1]: 462 nm
λmax Emission (nm) [1]: 570 nm
φ (%) ([2]; MKCA compound library): 3.35%
SMILES: O=C(CCl)Nc1ccc(C2=C3C=CC(N4CCCC4)=[N+]3[B-](F)(F)n3c2ccc3-n2cc(C3CC3)nn2)cc1 [MKCA215-4]

λmax Absorp. ([1]; BDCAC library, Table 3): 467 nm
λmax Emission ([1]; BDCAC library, Table 3): 560 nm
φ (quantum yield) ([2]; BDCAC library, Table 3): 2.4%
SMILES: CC(=O)Nc1ccc(C2=C3C=CC(N4CCCCC4)=[N+]3[B-](F)(F)n3c2ccc3-n2cc(C3CCCCC3)nn2)cc1 [BDCAC-6]

λmax Absorp. ([1]; BDCAC library, Table 3): 467 nm
λmax Emission ([1]; BDCAC library, Table 3): 585 nm
φ (quantum yield) ([2]; BDCAC library, Table 3): 0.8%
SMILES: CC(=O)Nc1ccc(C2=C3C=CC(N4CCCCC4)=[N+]3[B-](F)(F)n3c2ccc3-n2cc(CCC(C)C)nn2)cc1 [BDCAC-36]

λmax Abs. (nm) [1]: 469 nm
λmax Em. (nm) [1]: 578 nm
φ (%) ([2]; MKAC compound library): 2.20%
SMILES: CC(=O)Nc1ccc(C2=C3C=CC(N4CCc5ccccc5C4)=[N+]3[B-](F)(F)n3c2ccc3-n2cc(CC3CCCCC3)nn2)cc1 [MKAC66-8]

λmax Absorp. ([1]; BDC library, Table 2): 476 nm
λmax Emission ([1]; BDC library, Table 2): 573 nm
φ (quantum yield) ([2]; BDC library, Table 2): 0.23%
SMILES: Nc1ccc(C2=C3C=CC(N4CCCCC4)=[N+]3[B-](F)(F)n3c2ccc3-n2cc(CC3CCCC3)nn2)cc1 [BDC-7]

λmax Absorp. ([1]; BDCAC library, Table 3): 463 nm
λmax Emission ([1]; BDCAC library, Table 3): 551 nm
φ (quantum yield) ([2]; BDCAC library, Table 3): 3.2%
SMILES: CC(=O)Nc1ccc(C2=C3C=CC(N4CCCCC4)=[N+]3[B-](F)(F)n3c2ccc3-n2cc(-c3cccc(C)c3)nn2)cc1 [BDCAC-45]

λmax Abs. (nm) [1]: 470 nm
λmax Em. (nm) [1]: 583 nm
φ (%) ([2]; MKAC compound library): 1.96%
SMILES: CC(=O)Nc1ccc(C2=C3C=CC(N4CCc5ccccc5C4)=[N+]3[B-](F)(F)n3c2ccc3-n2cc(C3CCCC3)nn2)cc1 [MKAC66-5]

λmax Abs. (nm) [1]: 462 nm
λmax Em. (nm) [1]: 568 nm
φ (%) ([2]; MKAC compound library): 1.17%
SMILES: CC(=O)Nc1ccc(C2=C3C=CC(N4CCCC4)=[N+]3[B-](F)(F)n3c2ccc3-n2cc(CC3CCCCC3)nn2)cc1 [MKAC215-8]

λmax Absorp. ([1]; BDCCA library, Table 4): 466 nm
λmax Emission ([1]; BDCCA library, Table 4): 568 nm
φ (quantum yield) ([2]; BDCCA library, Table 4): 1.0%
SMILES: CCCCCCCc1cn(-c2ccc3n2[B-](F)(F)[N+]2=C(N4CCCCC4)C=CC2=C3c2ccc(NC(=O)CCl)cc2)nn1 [BDCCA-50]

Further lines, the compound ahead of its results:

SMILES: CC(=O)Nc1ccc(C2=C3C=CC(NCc4ccccc4C)=[N+]3[B-](F)(F)n3c2ccc3-n2cc(C3CCCC3)nn2)cc1 [MKAC101-5]
λmax Abs. (nm) [1]: 466 nm
λmax Em. (nm) [1]: 563 nm
φ (%) ([2]; MKAC compound library): 23.69%

SMILES: CCCc1cn(-c2ccc3n2[B-](F)(F)[N+]2=C(NCc4cc(F)cc(F)c4)C=CC2=C3c2ccc(NC(C)=O)cc2)nn1 [MKAC412-48]
λmax Abs. (nm) [1]: 467 nm
λmax Em. (nm) [1]: 561 nm
φ (%) ([2]; MKAC compound library): 22.19%

SMILES: COc1ccc(OC)c(CNC2=[N+]3C(=C(c4ccc(NC(C)=O)cc4)c4ccc(-n5cc(C6CC6)nn5)n4[B-]3(F)F)C=C2)c1 [MKAC181-4]
λmax Abs. (nm) [1]: 464 nm
λmax Em. (nm) [1]: 562 nm
φ (%) ([2]; MKAC compound library): 15.43%

SMILES: CCCCCC(O)c1cn(-c2ccc3n2[B-](F)(F)[N+]2=C(N(C)Cc4ccccc4)C=CC2=C3c2ccc(NC(=O)CCl)cc2)nn1 (stereo not drawn) [MKCA195-69]
λmax Absorp. (nm) [1]: 466 nm
λmax Emission (nm) [1]: 582 nm
φ (%) ([2]; MKCA compound library): 4.20%

SMILES: CC(C)Cc1cn(-c2ccc3n2[B-](F)(F)[N+]2=C(N4CCCC4)C=CC2=C3c2ccc(N)cc2)nn1 [MK215-43]
λmax Absorp. ([1]; MK library, Table 5): 471 nm
λmax Emission ([1]; MK library, Table 5): 571 nm
φ (quantum yield) ([2]; MK library, Table 5): 0.33%

SMILES: CCOc1ccccc1CNC1=[N+]2C(=C(c3ccc(NC(=O)CCl)cc3)c3ccc(-n4cc(CO)nn4)n3[B-]2(F)F)C=C1 [MKCA103-70]
λmax Absorp. (nm) [1]: 463 nm
λmax Emission (nm) [1]: 563 nm
φ (%) ([2]; MKCA compound library): 20.22%

SMILES: O=C(CCl)Nc1ccc(C2=C3C=CC(N4CCCCC4)=[N+]3[B-](F)(F)n3c2ccc3-n2cc(COc3ccccc3)nn2)cc1 [BDCCA-17]
λmax Absorp. ([1]; BDCCA library, Table 4): 464 nm
λmax Emission ([1]; BDCCA library, Table 4): 584 nm
φ (quantum yield) ([2]; BDCCA library, Table 4): 0.7%

SMILES: COc1ccc2cc(-c3cn(-c4ccc5n4[B-](F)(F)[N+]4=C(N6CCCCC6)C=CC4=C5c4ccc(N)cc4)nn3)ccc2c1 [BDC-22]
λmax Absorp. ([1]; BDC library, Table 2): 472 nm
λmax Emission ([1]; BDC library, Table 2): 579 nm
φ (quantum yield) ([2]; BDC library, Table 2): 0.28%
